Results taken from patent US20260273020A1, “OBESTATIN FOR USE AS ANTINEOPLASTIC AGENT IN THE TREATMENT OF PANCREATIC CANCER” (SERVIZO GALEGO DE SAÚDE, priority 2023, published 2026).

Test system: KPC FC1242 cells injected in the pancreas
Assay: Orthotopic syngeneic mice model of pancreatic cancer: tumour growth
Type: in vivo, C57BL/6J mice
Experimental: FIG. 2. Schematic representation of an orthotopic syngeneic mice model established for the determination of obestatin action on tumoral development. In brief, KPC FC1242 (1×10E6) cells were injected in the pancreas of C57BL/6J mice. After nine days of tumoral growing, the mice were randomly assigned to the different groups (n=4/group) and treated with vehicle [NaCl, 0.9% (w/v)] or obestatin (500 nmol/Kg/72 h) via ALZET® osmotic micropumps for five days. Mice without tumoral cells treatment were utilized as healthy controls.
FIG. 3. Effect of obestatin treatment on tumoral growing. The KPC FC1242 cells (1×10E6) were injected into the pancreas of C57BL/6J mice. After nine days of tumour post-injection, mice were treated with vehicle [NaCl, 0.9% (w/v)] or obestatin (500 nmol/Kg/72 h) via ALZET® osmotic micropumps for five days. Mice without tumoral cells treatment were utilized as healthy controls (n=4). Pancreases/tumours were collected, measured and weighted at day 14 after tumour implantation. Results are expressed as mean mean±SE (*, #, P<0.05). […]
Day 1: Implantation of KPC FC1242 Cells into Mouse Pancreas • 1. […] The cells were kept cold, on ice, until ready to inject. • 2. […] The mouse was monitored until no longer mobile and breathing has slowed. […] Then, the mouse was ready for hair removal. • 3. […]

obestatin
reduction in the pancreatic tumour growing in weight (mouse obestatin 500 nmol/Kg/72 h via osmotic micropumps for five days, from day 9 after tumour injection): 35.8±6.9%
size and weight of tumours vs control or vehicle-treated groups (obestatin-treated group, 500 nmol/Kg/72 h): significantly smaller
